Measured values published in patent US20230310372A1 (Amarin Pharmaceuticals Ireland Limited, priority 2013, published 2023).
Where “and” joins values, the source holds several entries; their conditions need not be identical. Identical values can stand only once.

Assay: Phase 1, open-label, crossover drug-drug interaction study: steady-state plasma pharmacokinetics of atorvastatin and its two active metabolites with or without ethyl eicosapentaenoate
Conditions: for Effect of co-administration of ethyl eicosapentaenoate on Tmax: atorvastatin 80 mg alone versus with 4 g ethyl eicosapentaenoate; for Change of mean plasma concentrations over time: subjects concomitantly administered 4 g of ethyl eicosapentaenoate, FIG. 1B, 1C
From the text: Data for Cmax and AUC0-24 are reported as means (SD); data for Tmax are reported as median values.

[1] = 80 mg atorvastatin co-administered with 4 g ethyl eicosapentaenoate
[2] = atorvastatin + ethyl eicosapentaenoate group divided by atorvastatin only group
[3] = atorvastatin + ethyl eicosapentaenoate versus atorvastatin only

Row | Compound | AUC0-24, mean (80 mg atorvastatin alone) [µg·h/mL] | Cmax, mean (80 mg atorvastatin alone) [µg/mL] | Tmax, median (80 mg atorvastatin alone) [h] | AUC0-24, mean [1] [µg·h/mL] | Cmax, mean [1] [µg/mL] | Tmax, median [1] [h] | AUC0-24, LSGM (least squares geometric mean) (A + EPA = atorvastatin (80 mg) co-administered with ethyl eicosapentaenoate (4 g)) [µg·h/mL] | Effect of co-administration of ethyl eicosapentaenoate on Tmax | AUC0-24, Ratio of LSGM [2] | Cmax, Ratio of LSGM [2] | AUC0-24, 90% CI of the ratio [3] | Cmax, 90% CI of the ratio [3] | Change of mean plasma concentrations over time
1 | CC(C)c1c(C(=O)Nc2ccccc2O)c(-c2ccccc2)c(-c2ccc(F)cc2)n1CCC(O)CC(O)CC(=O)O (stereo not drawn) [2-Hydroxyatorvastatin, 2-hydroxyatorvastatin] | 0.2131 | 0.0432 | 1.25 | 0.1967 | 0.0445 | 1.25 | 0.0309 | did not significantly affect | 0.91 and 0.92 | 1.04 and 0.97 | 82.8-99.7 and 82.3-103 | 89.1-121 and 80.0-117 | did not significantly change
2 | CC(C)c1c(C(=O)Nc2ccc(O)cc2)c(-c2ccccc2)c(-c2ccc(F)cc2)n1CC[C@@H](O)C[C@@H](O)CC(=O)O [4-Hydroxyatorvastatin, 4-hydroxyatorvastatin] | 0.0367 | 0.0041 | 1.50 | 0.0343 | 0.0042 | 1.50 | – | did not significantly affect | – | – | – | – | did not significantly change
